Source: patent publication US20200377599A1, “COMPOSITIONS AND METHODS FOR TREATING CANCER” (BETH ISRAEL DEACONESS MEDICAL CENTER, INC., priority 2017, published 2020)
Each block holds one molecule with its values, some of them ahead of it. Where a SMILES comes first, the peptide text is derived from it. The star is where a group is joined. Cbz = O=C(OCc1ccccc1)*

What was measured:
[1] = system: PD-L1 protein in C42 cells; assay: Immunoblot of PD-L1 in C42 cells treated with proteasome or cullin E3 ligase inhibitor; format: cell-based; conditions: MG132 10 μM or MLN4924 1 μM, 12 hours
Procedure: FIG. 3K is a graph showing the excised tumor mass (mg) of B16-F10 tumors ectopically expressing SPOP Wild Type (WT) or SPOP-F102C mutant. The B16-F10 tumors were harvested after euthanizing the mice and tumor weight was recorded at the time of sacrifice. Data are represented as mean±S.D., N=5, and *p<0.05 (Student's t-test). FIG. 3L and FIG. 3M are graphs showing the relative cell surface PD-L1 expression and absolute CD3^+ T-cell populations from the isolated tumor-infiltrating lymphocytes in B16-F10 xenografted tumors ectopically expressing SPOP-WT or the SPOP-F102C mutant as determined by FACS analysis. Data are represented as mean±S.D., N=5, and *p<0.05 (Student's t-test). […] FIG. 3O and FIG. 3P are graphs showing the quantification of IHC analysis of PD-L1 protein levels and CD8^+ T cells in 82 cases of SPOP wild-type versus 15 cases of SPOP-mutant human prostate tumor specimens. **p<0.01 (Mann-Whitney test for PD-L1); *p<0.05 (Student's t-test for CD8).
(§1) Cells were lysed in EBC buffer (50 mM Tris pH 7.5, 120 mM NaCl, 0.5% NP-40) supplemented with protease inhibitors (Complete Mini, Roche) and phosphatase inhibitors (phosphatase inhibitor cocktail set I and II, Calbiochem). Protein concentrations were measured by the Beckman Coulter DU-800 spectrophotometer using the Bio-Rad protein assay reagent as described previously (Gao et al. Nat Cell Biol 11, 397-408 (2009)). […]

[2] = system: PD-L1 protein abundance in MC38, CT26, 4T1 and B16-F10 cells; assay: Immunoblot of PD-L1 in mouse tumor cell lines arrested in M phase; format: cell-based; conditions: MC38, CT26, 4T1 and B16-F10 cells arrested in M phase; treated 20 hours
From the text: FIG. 1A, FIG. 1B, FIG. 1C, FIG. 1D, FIG. 1E, FIG. 1F, FIG. 1G, and FIG. 1H are images showing the protein abundance of PD-L1 as the protein fluctuates during cell cycle progression. […] FIG. 1B are the cell-cycle profiles in FIG. 1A, which were monitored by fluorescence-activated cell sorting (FACS) analysis of DNA content. […] FIG. 1E and FIG. 1F show IB analysis of WCL derived from MC38 tumor cells, which are derived from colon adenocarcinoma, or CT26 mouse tumor cells, which are colon carcinoma cells, treated with the indicated concentration of nocodazole for 20 hours before harvesting. FIG. 1G and FIG. 1H show IB analysis of WCL derived from 4T1 tumor cells, which are breast cancer cells, or CT26 mouse tumor cells treated with indicated concentration of taxol for 20 hours before harvesting. […]
as §1

SPOP-S6A mutant = molecular target: T1, SPOP-S6A mutant (UniProt O43791 1-374); assay: co-immunoprecipitation from transfected 293T cells (FIG. 4H)
T1 construct: also called Flag-SPOP S6A; phosphorylation-deficient S6A mutant of SPOP

PD-L1 = molecular target: T2, PD-L1 (human, UniProt Q9NZQ7 19-290, limits assumed); assay: co-immunoprecipitation from transfected 293T cells (FIG. 9E)
T2 construct: also called HA-PD-L1; PD-L1 WT

Cdh1 = molecular target: T3, Cdh1 (UniProt Q9UM11 1-496, limits assumed); assay: co-immunoprecipitation from transfected 293T cells (FIG. 4C)
T3 construct: Expressed in 293T cells or endogenous in MDA-MB-231 and HeLa cells; also called HA-Cdh1; APC/C E3 ligase adaptor protein Cdh1
Procedure: Cells were treated with 30 μM MG132 for 6 hours before harvesting. […] FIG. 4F are in vitro kinase assays showing that cyclin D1/CDK4 phosphorylates SPOP at Ser6, not Ser222. FIG. 4G and FIG. 4H show IB analysis of IP and WCL derived from 293T cells transfected with indicated constructs and treated with MG132 (10 μM) for 12 hours before harvesting. […] Tumor volume were measured every three days and plotted individually. […]

T3 sequence (Q9UM11 whole entry): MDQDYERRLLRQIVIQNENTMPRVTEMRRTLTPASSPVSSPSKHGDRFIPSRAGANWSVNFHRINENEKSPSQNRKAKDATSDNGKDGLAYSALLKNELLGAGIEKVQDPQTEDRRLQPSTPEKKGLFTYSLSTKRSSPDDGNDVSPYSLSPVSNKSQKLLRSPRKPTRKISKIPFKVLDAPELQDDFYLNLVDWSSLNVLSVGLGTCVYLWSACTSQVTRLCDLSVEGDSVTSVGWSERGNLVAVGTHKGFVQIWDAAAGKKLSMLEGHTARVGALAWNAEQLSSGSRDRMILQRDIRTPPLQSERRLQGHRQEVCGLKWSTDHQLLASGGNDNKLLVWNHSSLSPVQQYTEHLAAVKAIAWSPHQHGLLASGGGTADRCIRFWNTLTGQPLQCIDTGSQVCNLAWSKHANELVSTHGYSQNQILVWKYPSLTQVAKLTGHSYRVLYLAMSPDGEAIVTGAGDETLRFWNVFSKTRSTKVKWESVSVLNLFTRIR
T2 sequence (Q9NZQ7 19-290 limits assumed): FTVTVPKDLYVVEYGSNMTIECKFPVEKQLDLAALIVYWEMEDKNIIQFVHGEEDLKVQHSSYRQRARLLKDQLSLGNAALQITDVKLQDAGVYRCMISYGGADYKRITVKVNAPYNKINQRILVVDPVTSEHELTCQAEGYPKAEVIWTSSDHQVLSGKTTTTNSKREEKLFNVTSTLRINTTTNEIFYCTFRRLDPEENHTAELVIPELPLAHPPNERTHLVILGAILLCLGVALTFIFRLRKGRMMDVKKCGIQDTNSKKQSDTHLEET

Molecule: NS(=O)(=O)OC[C@@H]1C[C@@H](n2ccc3c(N[C@H]4CCc5ccccc54)ncnc32)C[C@@H]1O [MLN4924]
- PD-L1 protein stability [1]: stabilized PD-L1 protein

Molecule: CC(=O)O[C@H]1C(=O)[C@@]2(C)[C@H]([C@H](OC(=O)c3ccccc3)[C@]3(O)C[C@H](OC(=O)[C@H](O)[C@@H](NC(=O)c4ccccc4)c4ccccc4)C(C)=C1C3(C)C)[C@]1(OC(C)=O)CO[C@@H]1C[C@@H]2O [Taxol]
- PD-L1 protein abundance [2]: Elevated PD-L1 protein abundance

Molecule: CC(C)C[C@@H](C=O)NC(=O)[C@H](CC(C)C)NC(=O)[C@H](CC(C)C)NC(=O)OCc1ccccc1 [MG132] (Cbz-Leu-Leu-Leu-aldehyde)
- PD-L1 protein stability [1]: stabilized PD-L1 protein

Molecule: COC(=O)Nc1nc2ccc(C(=O)c3cccs3)cc2[nH]1 [nocodazole]
- PD-L1 protein abundance [2]: Elevated PD-L1 protein abundance

- binding result (SPOP-S6A mutant): no binding
B1: 14-3-3γ (other, UniProt P61981 1-247, looked up)
chain: MVDREQLVQKARLAEQAERYDDMAAAMKNVTELNEPLSNEERNLLSVAYKNVVGARRSSWRVISSIEQKTSADGNEKKIEMVRAYREKIEKELEAVCQDVLSLLDNYLIKNCSETQYESKVFYLKMKGDYYRYLAEVATGEKRATVVESSEKAYSEAHEISKEHMQPTHPIRLGLALNYSVFYYEIQNAPEQACHLAKTAFDDAIAELDTLNEDSYKDSTLIMQLLRDNLTLWTSDQQDDDGGEGNN
notes: One of the HA-14-3-3 isoform constructs; also called HA-14-3-3γ

- binding result (PD-L1): no binding
B2: SPOP delta MATH (other, UniProt O43791 1-374, looked up)
chain: MSRVPSPPPPAEMSSGPVAESWCYTQIKVVSVVQDSVNISGQNTMNMVKVPECRLADELGGLWENSRFTDCCLCVAGQEFQAHKAILAARSPVFSAMFEHEMEESKKNRVEINDVEPEVFKEMMCFIYTGKAPNLDKMADDLLAAADKYALERLKVMCEDALCSNLSVENAAEILILADLHSADQLKTQAVDFINYHASDVLETSGWKSMVVSHPHLVAEAYRSLASAQCPFLGPPRKRLKQS
notes: also called SPOP with the MATH domain deleted; Flag-tagged SPOP delta MATH

- binding result (Cdh1): no binding
B3: Flag-SPOP with delta D-Box (RxxL) (other, UniProt O43791 1-374, looked up)
chain: MSRVPSPPPPAEMSSGPVAESWCYTQIKVVKFSYMWTINNFSFCREEMGEVIKSSTFSSGANDKLKWCLRVNPKGLDEESKDYLSLYLLLVSCPKSEVRAKFKFSILNAKGEETKAMESQRAYRFVQGKDWGFKKFIRLDEANGLLPDDKLTLFCEVSVVQDSVNISGQNTMNMVKVPECRLADELGGLWENSRFTDCCLCVAGQEFQAHKAILAARSPVFSAMFEHEMEESKKNRVEINDVEPEVFKEMMCFIYTGKAPNLDKMADDLLAAADKYALERLKVMCEDALCSNLSVENAAEILILADLHSADQLKTQAVDFINYHASDVLETSGWKSMVVSHPHLVAEAYRSLASAQCPFLGPPRKRLKQS
notes: also called SPOP deletion of RxxL mutant; SPOP D-box deletion
